From patent publication US20010049374A1 (priority 1997, published 2001)

Target: T1, urokinase enzyme Abbokinase (Homo sapiens, UniProt P00749)
T1 construct: purchased Abbott Laboratories, Abbott Park, Ill
Assay: Determination of urokinase inhibition (Abbokinase, chromogenic substrate S-2444)
Type: biochemical
Conditions: IC50, Inhibitory potency against urokinase; substrate S-2444 at 200 μM, enzyme 2-3 nM, pH 7.4, 405 nm
Experimental: Several vials were reconstituted as directed on the vial, aliquoted and stored frozen. The enzyme was further diluted in assay buffer and 10 μl was used in the assay. Enzyme concentration in the assay was 2-3 nM. […] The Spectromax® calculated the reaction rates which were used to calculate percent inhibition of the compounds of this invention versus the reaction rate of the enzyme in the absence of any inhibitor. The Ki's of the inhibitors were calculated from the percent inhibition and previously established Km.

Point of comparison: `CSc1cc(-c2cc(C(=O)Nc3ccccc3)cc3ccc(C(=N)N)cc23)co1` [Example 154, 6-(aminoiminomethyl-4-[5-(methylthio)-3-furanyl)]-N-phenyl-2-naphthalenecarboxamide], IC50 0.035 µM. Against it:
- N=C(N)c1ccc2cc(-c3cccc(C=O)c3)ccc2c1 [Example 111, 6-(3-formylphenyl)-2-naphthalenecarboximidamide] — 120-fold higher, 4.17 µM
- N=C(N)c1ccc2cc(C#Cc3ccc(N)cc3)ccc2c1 [Example 121, 6-[(4-aminophenyl)ethynyl]-2-naphthalenecarboximidamide] — 25-fold higher, 0.89 µM
- COc1ccc(C#Cc2ccc3cc(C(=N)N)ccc3c2)cc1CCN [Example 125, 6-[[3-(2-aminoethyl)-4-methoxyphenyl]ethynyl]-2-naphthalenecarboximidamide] — 6.6-fold higher, 0.23 µM
- N=C(N)c1ccc2cc(C#Cc3ccc(CO)cc3)ccc2c1 [Example 126, 6-[[4-(hydroxymethyl)phenyl]ethynyl]-2-naphthalenecarboximidamide] — 25-fold higher, 0.87 µM
- COc1ccc2ccc(C(=N)N)cc2c1C1=CC(=O)CC1 [Example 131, 7-methoxy-8-(3-oxo-1-cyclopenten-1-yl)-2-naphthalenecarboximidamide] — 120-fold higher, 4.18 µM
- N=C(N)c1ccc2cc(NC(=O)C3CCC(CN)CC3)ccc2c1 (stereo not drawn) [Example 139, N-[6-(aminoiminomethyl)-2-naphthalenyl]-4-4-(aminomethyl)cyclohexanescarboxamide] — 75-fold higher, 2.64 µM
- N=C(N)c1ccc2cc(NC(=O)Nc3ccc(CN)cc3)ccc2c1 [Example 140, N-[6-(aminoiminomethyl)-2-naphthalenyl]-N′-[(4-aminomethyl)phenyl]urea] — 13-fold higher, 0.46 µM
- N=C(N)c1ccc2cc(-c3ncc(-c4ccccc4)o3)ccc2c1 [Example 144, 6-(5-phenyl-2-oxazolyl)-2-naphthalenecarboximidamide] — 36-fold higher, 1.26 µM
- N=C(N)c1ccc2cc(-c3ncc(-c4ccccc4)s3)ccc2c1 [Example 145, 6-(5-phenyl-2-thiazolyl)-2-naphthalenecarboximidamide] — 74-fold higher, 2.59 µM
- COc1ccc2ccc(C(=N)N)cc2c1Sc1ccccc1 [Example 149, 7-methoxy-8-(phenylthio)-2-naphthalenecarboximidamide] — 110-fold higher, 3.8 µM
- COc1ccc2ccc(C(=N)N)cc2c1Nc1cnccn1 [Example 150, 7-methoxy-8-(pyrazinylamino)-2-naphthalenecarboximidamide] — 4.6-fold higher, 0.16 µM
- COC(=O)Nc1cc(C(=O)Nc2ccc(CN)cc2)cc2ccc(C(N)=NO)cc12 [Example 170, methyl [3-[[[4-(aminomethyl)phenyl]amino]carbonyl]-7-[4-amino(hydroxyimino)methyl]-1-naphthalenyl]carbamate] — 20-fold higher, 0.695 µM
- NC(=NO)c1ccc2cc(C(=O)Nc3ccccc3)ccc2c1 [Example 171] — higher, > 30 µM
- N=C(N)c1ccc2cccc(Nc3ccccn3)c2c1 [Example 174, 8-(2-pyridinylamino)-2-naphthalenecarboximidamide] — 4.9-fold higher, 0.17 µM
- N=C(N)c1ccc2cc(OCc3ccc(CO)cc3)ccc2c1 [Example 176, 6-[4-[(hydroxymethyl)phenyl]methoxy]-2-naphthalenecarboximidamide] — 140-fold higher, 5.01 µM
- N=C(NO)c1ccc2cccc(Nc3ncccn3)c2c1 [Example 177, N-hydroxy-8-(2-pyrimidinylamino)-2-naphthalenecarboximidamide] — 430-fold higher, 14.9 µM
- NC(=NO)c1ccc2cc(C(=O)Nc3ccccc3)cc(Nc3ncccn3)c2c1 [Example 181] — 250-fold higher, 8.92 µM
- COC(=O)c1ccc(COc2ccc3ccc(C(N)=NO)cc3c2)cc1 [Example 182] — higher, > 30 µM
- N=C(N)c1ccc2ccc(OCCN3CCOCC3)cc2c1 [Example 206, 7-[2-(4-morpholinyl)ethoxy]-2-naphthalenecarboximidamide] — 160-fold higher, 5.73 µM
- N=C(N)c1ccc2cc(C3CC3c3ccc(CO)cc3)ccc2c1 (stereo not drawn) [Example 215, 6-[2-[4-(hydroxymethyl)phenyl]-1-cyclopropyl]-2-naphthalenecarboximidamide] — 31-fold higher, 1.1 µM
- CCOC(=O)NC(=N)c1ccc2cc(C3CC3c3ccccc3)ccc2c1 (stereo not drawn) [Example 216, N-(ethoxycarbonyl)-6-(2-phenyl-1-cyclopropyl)-2-naphthalenecarboximidamide] — higher, > 30 µM
- CSCc1cc(-c2cc(C(=O)Nc3ccccc3)cc3ccc(C(=N)N)cc23)co1 [Example 229] — 3.3-fold higher, 0.117 µM

Same assay, conditions: Inhibitory potency against urokinase; substrate S-2444 at 200 μM, enzyme 2-3 nM, pH 7.4, 405 nm; read-out: IC50

Point of comparison: “N-(6-aminoiminomethyl-2-naphthalenyl)-N′-benzyloxyurea [Example 75]”, IC50 2.09 µM. Against it:
- COC(=O)CCCCOc1ccc2ccc(C(=N)N)cc2c1 [Example 119, methyl 5-[7-[(aminoiminomethyl)-2-naphthalenyl]oxy]pentanoate] — 2.1-fold higher, 4.41 µM
- CC(C)(C)OC(=O)NCc1ccc(C#Cc2ccc3cc(C(=N)N)ccc3c2)cc1 [Example 123, 1,1-dimethylethyl [[4-[[6-(aminoiminomethyl)-2-naphathalenyl]ethynyl]phenyl]methyl]carbamate] — 1.7-fold lower, 1.24 µM
- CC(C)(C)OC(=O)NCC1CCC(C(=O)Nc2ccc3cc(C(=N)N)ccc3c2)CC1 (stereo not drawn) [Example 137, 1,1-dimethylethyl [[4-[[[6-(aminoiminomethyl)-2-naphathalenyl]amino]carbonyl]-cyclohexyl]methyl]carbamate] — 2.5-fold lower, 0.82 µM
- COC(=O)Nc1cc(C(=O)Nc2ccc(CN)cc2)cc2ccc(C(=N)N)cc12 [Example 141, methyl [7-(aminoiminomethyl)-3-[[[4-(aminomethyl)phenyl]amino]carbonyl]-1-naphathalenyl]carbamate] — 1800-fold lower, 0.00117 µM
- COC(=O)NCc1cccc2ccc(C(=N)N)cc12 [Example 155, methyl [7-(aminoiminomethyl)-1-naphthalenyl]methyl carbamate] — within 1.5-fold, 2.33 µM
- N=C(N)c1ccc2cc(C#Cc3ccccn3)ccc2c1 [Example 179, 6-(2-pyridinylethynyl)-2-naphthalenecarboximidamide] — within 1.5-fold, 1.61 µM
- Cc1cc(NC(=O)c2ccc3cc(C(=N)N)ccc3c2)no1 [Example 192] — within 1.5-fold, 1.6 µM
- N=C(N)c1ccc2cc(C(=O)Nc3ncc(Br)s3)ccc2c1 [Example 197] — within 1.5-fold, 2.03 µM
- CCCSc1cc(-c2cc(C(=O)Nc3ccccc3)cc3ccc(C(=N)N)cc23)co1 [Example 201] — 27-fold lower, 0.077 µM
- N=C(N)c1ccc2cc(C(=O)Nc3ccccc3)cc(C3CCCN3)c2c1 (stereo not drawn) [Example 207, 6-(aminoiminomethyl)-N-phenol-4-(2-pyrrolidinyl)-2-naphthalenecarboxamide] — 2-fold higher, 4.12 µM
- N=C(N)c1ccc2cc(OCC(=O)O)ccc2c1 [Example 212] — 2.4-fold higher, 5.09 µM
- COC(=O)c1ccc(COc2ccc3cc(C(=N)N)ccc3c2)cc1 [Example 213] — 2.2-fold higher, 4.58 µM
- N=C(N)c1ccc2cc(C(=O)Nc3cccc(OCc4ccccc4)c3)ccc2c1 [Example 222] — 6-fold lower, 0.346 µM
- CCSC1CC(c2cc(C(=O)Nc3ccccc3)cc3ccc(C(=N)N)cc23)CO1 (stereo not drawn) [Example 232, 6-(aminoiminomethyl)-4-[5-(ethythio)tetrahydro-3-furanyl]-N-phenyl-2-naphthalenecarboxamide] — 17-fold lower, 0.123 µM
- (E)-3-[7-(aminoiminomethyl)-2-methoxy-1-naphthalenyl)-2-propenamide [Example 120] — 2.2-fold lower, 0.93 µM
- (E)-4-[2-(6-Aminoiminomethyl-2-naphthalenyl)ethenyl]benzenesulfonamide [Example 83] — within 1.5-fold, 2.24 µM
- (E)-4-[2-(6-Aminoiminomethyl-2-naphthalenyl)ethenyl]benzoic acid [Example 84] — 4.8-fold higher, 10 µM
- (E)-6-[2-[4-(hydroxymethyl)phenyl]ethenyl]-2-naphthalenecarboximidamide [Example 108] — 2.1-fold lower, 0.996 µM
- (S)-2-Amino-N-[1-[(6-aminoiminomethyl-2-naphthalenyl)carbonyl]cyclohexyl]propionamide [Example 37] — within 1.5-fold, 2.34 µM
- Ethyl [6-(aminoiminomethyl)-2-naphthalenyl]carbamate [Example 78] — 1.7-fold higher, 3.57 µM
- Methyl 3-[[7-(aminoiminomethyl)-1-naphthalenyl]amino]-3-oxopropionate [Example 17] — 2-fold higher, 4.26 µM
- Methyl [3-methoxy-6-(aminoiminomethyl)-4-naphthalenyl]carbamate [Example 90] — 30-fold lower, 0.07 µM
- Methyl [7-(aminoiminomethyl)-1-naphthalenyl)carbamate [Example 16] — 70-fold lower, 0.03 µM
- Methyl [(7-aminoiminomethyl-2-methoxy-1-naphthalenyl)oxy]acetate [Example 6] — within 1.5-fold, 2.3 µM
- N-(6-Aminoiminomethyl-2-naphthalenyl)-N′-benzylurea [Example 69] — 1.5-fold lower, 1.38 µM
- N-(6-Aminoiminomethyl-2-naphthalenyl)-N′-isopropylurea [Example 71] — within 1.5-fold, 2.39 µM
- N-(6-Aminoiminomethyl-2-naphthalenyl)-N′-methylurea [Example 70] — within 1.5-fold, 2.57 µM
- N-(6-aminoiminomethyl-2-naphthalenyl)-N′-cyclohexylurea [Example 74] — within 1.5-fold, 1.61 µM
- N-(6-aminoiminomethyl-2-naphthalenyl)-N′-phenylurea [Example 40] — 6.7-fold lower, 0.31 µM
- N-[3-(methyl)phenyl]-6-aminoiminomethyl-2-naphthalenecarboxamide [Example 48] — 1.6-fold lower, 1.3 µM
- N-[4-(Aminomethyl)phenyl]-6-aminoiminomethyl-2-naphthalenecarboxamide [Example 8] — 21-fold lower, 0.1 µM
- N-[4-(aminocarbonyl)phenyl]-6-(aminoiminomethyl)-2-naphthalenecarboxamide [Example 184] — 5.6-fold lower, 0.375 µM
- N-[6-(Aminoiminomethyl)-2-naphthalenyl]-4-(aminomethyl)benzamide [Example 77] — 9.1-fold lower, 0.23 µM
- N-[6-(aminoiminomethyl)-2-naphthalenyl)benzamide [Example 136] — within 1.5-fold, 1.67 µM
- N-[6-(aminoiminomethyl)-2-naphthalenyl]-N′-(4-aminophenyl)urea [Example 138] — 4.5-fold lower, 0.46 µM
- N-[7-(aminoiminomethyl )-1-naphthalenyl]urea [Example 161] — within 1.5-fold, 1.59 µM
